Assay [1] addresses T1, Prostaglandin D2 receptor 2 (Homo sapiens, UniProt Q9Y5Y4).
T1 sequence (Q9Y5Y4 whole entry): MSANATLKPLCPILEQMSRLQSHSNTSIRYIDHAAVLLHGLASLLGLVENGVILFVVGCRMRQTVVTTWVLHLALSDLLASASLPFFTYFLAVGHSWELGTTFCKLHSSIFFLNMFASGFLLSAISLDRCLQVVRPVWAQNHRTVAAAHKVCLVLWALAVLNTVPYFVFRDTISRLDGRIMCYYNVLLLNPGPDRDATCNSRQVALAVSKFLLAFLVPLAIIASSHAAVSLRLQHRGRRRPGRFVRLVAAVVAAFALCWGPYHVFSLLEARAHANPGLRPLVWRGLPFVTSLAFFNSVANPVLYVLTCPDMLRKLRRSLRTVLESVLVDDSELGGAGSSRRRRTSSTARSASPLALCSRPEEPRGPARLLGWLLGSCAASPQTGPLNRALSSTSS
Put plainly: Inhibitory activity for binding of PGD-2 to CRTH-2 in hCRTH-2 binding assay using HEK293 cell membranes.

Assay [2] deals with T1, Prostaglandin D2 receptor 2. Put plainly: Inhibitory concentration for PGD2-mediated receptor activation in a fluorescence assay that measures changes in intracellular calcium. Format: functional, cell-based. (In general: A change in cytosolic calcium serves as a functional read-out for many receptors and channels.)
Assay [3] concerns the target T2, Thromboxane A2 receptor (Homo sapiens, UniProt P21731).
T2 sequence (P21731 whole entry): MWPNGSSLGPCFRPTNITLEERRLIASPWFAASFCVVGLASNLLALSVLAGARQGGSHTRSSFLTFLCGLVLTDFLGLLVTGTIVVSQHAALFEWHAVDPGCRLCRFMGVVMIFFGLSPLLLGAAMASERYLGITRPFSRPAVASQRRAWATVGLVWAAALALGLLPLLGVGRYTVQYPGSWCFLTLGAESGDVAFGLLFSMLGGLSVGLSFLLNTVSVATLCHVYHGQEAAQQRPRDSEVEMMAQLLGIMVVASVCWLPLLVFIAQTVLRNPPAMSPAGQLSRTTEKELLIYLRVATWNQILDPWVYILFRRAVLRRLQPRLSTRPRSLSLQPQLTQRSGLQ
Put plainly: Inhibitory activity for binding of PGD-2 in hTP binding assay using HEK293 cell membranes.

The target in assay [4] is T3, Thromboxane A2 receptor (Homo sapiens) (UniProt P21731).
T3 sequence (whole entry): T2 sequence (P21731 whole entry)
Put plainly: Percentage inhibition for binding of PGD-2 in hTP binding assay using HEK293 cell membranes. As to conditions: concentration not given here.

In assay [5] the target is T1, Prostaglandin D2 receptor 2. Put plainly: = for PGD2-mediated receptor activation in a fluorescence assay that measures changes in intracellular calcium.
The target of assay [6] is T2, Thromboxane A2 receptor. The assay can be described thus: Inhibitory activity for binding of PGD-2 to hTP in hTP binding assay using HEK293 cell membranes.
In assay [7] the target is T1, Prostaglandin D2 receptor 2. The assay can be described thus: Inhibitory activity against CRTH-2 in hCRTH-2 binding assay using HEK293 cell membranes.

Each structure is given as a SMILES string.

One may read the Ki as the dissociation constant of the complex between target and ligand, obtained from inhibition or displacement. A higher Ki goes with a looser hold on the target. On to `O=C(O)c1cccc(-n2c3c(c4cc(NS(=O)(=O)c5ccc(F)cc5)ccc42)CCCC3)c1`, for which the Ki in assay [1] amounted to 27 µM.
Molecule `O=C(O)CCn1c2c(c3cc(NCc4ccccc4)ccc31)CCCC2` gave a Ki in assay [1] of 17 µM.
In turn, `O=C(O)CCn1c2c(c3cc(NS(=O)(=O)c4ccc(Cl)cc4)ccc31)CCCC2` displayed a Ki in assay [1] of 3 µM.
Still for that read-out and setting: the same measure for `O=C(O)CCn1c2c(c3cc(NS(=O)(=O)c4ccc(O)cc4)ccc31)CCCC2`: 7.4 µM; for `O=C(O)CCn1c2c(c3cc(NS(=O)(=O)c4cccc(F)c4)ccc31)CCCC2`: 1.3 µM; for `O=P(O)(O)CCn1c2c(c3cc(NS(=O)(=O)c4ccc(F)cc4)ccc31)CCCC2`: above 50 µM.
Still for that read-out and setting: the same measure for `CCCS(=O)(=O)Nc1ccc2c(c1)c1c(n2CCC(=O)O)CCCC1`: above 50 µM.
Still for that read-out and setting: for `O=C(O)CCn1c2c(c3cc(NC(=O)c4ccccc4)ccc31)CCCC2` the value was above 50 µM; for `Cc1cccc(S(=O)(=O)Nc2ccc3c(c2)c2c(n3CCC(=O)O)CCCC2)c1`, 4.2 µM.
`O=C(O)CCn1c2c(c3cc(NS(=O)(=O)c4ccccc4)ccc31)CCCC2`: the affinity in assay [1], expressed as Ki, was 1.2 µM.
As to `O=S(=O)(O)CCn1c2c(c3cc(NS(=O)(=O)c4ccc(F)cc4)ccc31)CCCC2`, the Ki in assay [1] was found to be 2.4 µM.
On the same count and under the same terms, for `O=C(O)CCn1c2c(c3cc(NS(=O)(=O)c4ccc(F)cc4F)ccc31)CCCC2` the value was 3.6 µM; for `O=C(O)CCn1c2c(c3cc(NS(=O)(=O)c4ccc(-c5ccccc5)cc4)ccc31)CCCC2`, 3.3 µM.
Broadly, the IC50 is the midpoint of a concentration-inhibition curve. For the molecule `O=C(O)CN1c2ccc(NS(=O)(=O)c3ccc(F)cc3)cc2C2CCCCCC21` (configuration not stated), the IC50 in assay [2] was 0.022 µM. The molecule further came in with a Ki on Thromboxane A2 receptor [3] above 20 µM.
In turn, `O=C(O)CCn1c2c(c3cc(NC(=O)Nc4ccccc4)ccc31)CCCC2` registered a Ki in assay [1] above 50 µM.
In general, inhibition refers to the relative decrease from the control value, in per cent. Low readings indicate little suppression, high ones strong suppression. `O=C(O)CCn1c2c(c3ccccc31)C[C@H](NS(=O)(=O)c1ccc(F)cc1)CC2` [RAMATROBAN]: the results for the Ki (in assay [1]; at Thromboxane A2 receptor [3]) were 0.29 µM and 0.018 µM, respectively. In addition, the inhibition in assay [4] was determined as 98%. For the same molecule, in assay [5], the IC50 turned out to be 0.34 µM.
The molecule `O=C(O)CCn1c2c(c3cc(NS(=O)(=O)c4ccccc4F)ccc31)CCCC2` had a Ki in assay [1] of 0.97 µM.
With `Cc1ccccc1S(=O)(=O)Nc1ccc2c(c1)c1c(n2CCC(=O)O)CCCC1`, the Ki in assay [1] was above 50 µM.
For the molecule `CC(C)(C)C1CCc2c(c3cc(NS(=O)(=O)c4ccc(F)cc4)ccc3n2CC(=O)O)C1` (configuration not stated), the IC50 in assay [2] stood at 0.12 µM.
Take `CC(CC(=O)O)n1c2c(c3cc(NS(=O)(=O)c4ccc(F)cc4)ccc31)CCCC2` (configuration not stated): in assay [1], the Ki was above 50 µM.
In the case of `CC1CCc2c(c3cc(NS(=O)(=O)c4ccc(F)cc4)ccc3n2CC(=O)O)C1` (configuration not stated), the half-inhibitory concentration (IC50) in assay [2] amounted to 0.0097 µM. Besides, the inhibition in assay [4] came to 30%. In addition, the Ki at Thromboxane A2 receptor [3] was above 20 µM.
In assay [1], `O=C(O)CCn1c2c(c3cc(NS(=O)(=O)c4cccs4)ccc31)CCCC2` showed an inhibition constant Ki of 7.6 µM.
Same read-out and setting: the same measure for `O=C(O)CCn1c2c(c3cc(NS(=O)(=O)c4ccc(F)c(F)c4)ccc31)CCCC2`: 4.2 µM; for `Cc1ccc(S(=O)(=O)Nc2ccc3c(c2)c2c(n3CCC(=O)O)CCCC2)cc1`: 3.2 µM.
Turning to `O=C(O)Cn1c2c(c3cc(NS(=O)(=O)c4ccc(F)cc4)ccc31)CCCC2`, the figures for the Ki (on Thromboxane A2 receptor [6]; in assay [1]) were above 20 µM and 0.03 µM, respectively.
For the molecule `COc1ccc(S(=O)(=O)Nc2ccc3c(c2)c2c(n3CCC(=O)O)CCCC2)cc1`, in assay [1], the Ki was 2.1 µM.
On the same count and under the same terms, the same measure for `CC(Cn1c2c(c3cc(NS(=O)(=O)c4ccc(F)cc4)ccc31)CCCC2)C(=O)O` (configuration not stated): above 50 µM.
In assay [1], `CCC(C(=O)O)n1c2c(c3cc(NS(=O)(=O)c4ccc(F)cc4)ccc31)CCCC2` (configuration not stated) came in with a Ki of 18 µM.
Still for that read-out and setting: the same measure for `O=C(O)c1ccccc1-n1c2c(c3cc(NS(=O)(=O)c4ccc(F)cc4)ccc31)CCCC2`: 33 µM; for `CC(C(=O)O)n1c2c(c3cc(NS(=O)(=O)c4ccc(F)cc4)ccc31)CCCC2` (configuration not stated): 4.4 µM.
On the same count and under the same terms, the same measure for `O=C(O)/C=C\n1c2c(c3cc(NS(=O)(=O)c4ccc(F)cc4)ccc31)CCCC2`: 19 µM.
In the case of `O=C(O)CCn1c2c(c3cc(NS(=O)(=O)c4ccc(F)cc4)ccc31)CCCC2`, the Ki was 0.25 µM in assay [1], 0.25 µM in assay [7] and 1.5 µM on Thromboxane A2 receptor [3].
As to `O=C(O)CCCCn1c2c(c3cc(NS(=O)(=O)c4ccc(F)cc4)ccc31)CCCC2`, the Ki in assay [1] worked out at 4.6 µM.
Same read-out and setting: for `O=C(O)CCn1c2c(c3cc(NS(=O)(=O)c4ccc(F)c(Cl)c4)ccc31)CCCC2` the value was 1.7 µM; for `O=C(O)CCCn1c2c(c3cc(NS(=O)(=O)c4ccc(F)cc4)ccc31)CCCC2`, 8.3 µM.
Take `O=C(O)Cn1c2c(c3cc(NS(=O)(=O)c4ccc(F)cc4)ccc31)CC(c1ccccc1)CC2` (configuration not stated): the IC50 in assay [2] worked out at 0.022 µM. The molecule also displayed an inhibition in assay [4] of 66%. Also, the inhibition constant (Ki) on Thromboxane A2 receptor [3] is above 20 µM.
Turning to `O=C(O)Cn1c2c(c3cc(NS(=O)(=O)c4ccc(F)cc4)ccc31)CCC2`, the IC50 in assay [2] was 0.13 µM.
Molecule `O=C(O)CCn1c2c(c3cc(NS(=O)(=O)c4ccc(Oc5ccccc5)cc4)ccc31)CCCC2` came in with a Ki in assay [1] of 7.5 µM.
Same read-out and setting: for `Nc1ccc2c(c1)c1c(n2CCC(=O)O)CCCC1` the value was above 50 µM; for `O=C(O)CCn1c2c(c3cc(NS(=O)(=O)c4ccc5ccccc5c4)ccc31)CCCC2`, 7.4 µM.
Still for that read-out and setting: the same measure for `O=C(O)c1ccc(-n2c3c(c4cc(NS(=O)(=O)c5ccc(F)cc5)ccc42)CCCC3)cc1`: 6.4 µM.

These data come from ChEMBL document CHEMBL1142052, “Isosteric ramatroban analogs: selective and potent CRTH-2 antagonists” (Bioorg Med Chem Lett, 2005).
